Molecular target: Type-1 angiotensin II receptor (Rattus norvegicus) (UniProt P25095)
Experiment: The compound was tested for Angiotensin II (AII) antagonist activity in vivo in an AII infused, normotensive rat model upon intravenous administration

Chain of Type-1 angiotensin II receptor (Rattus norvegicus) (P25095 whole entry, looked up, the tested form may be a part): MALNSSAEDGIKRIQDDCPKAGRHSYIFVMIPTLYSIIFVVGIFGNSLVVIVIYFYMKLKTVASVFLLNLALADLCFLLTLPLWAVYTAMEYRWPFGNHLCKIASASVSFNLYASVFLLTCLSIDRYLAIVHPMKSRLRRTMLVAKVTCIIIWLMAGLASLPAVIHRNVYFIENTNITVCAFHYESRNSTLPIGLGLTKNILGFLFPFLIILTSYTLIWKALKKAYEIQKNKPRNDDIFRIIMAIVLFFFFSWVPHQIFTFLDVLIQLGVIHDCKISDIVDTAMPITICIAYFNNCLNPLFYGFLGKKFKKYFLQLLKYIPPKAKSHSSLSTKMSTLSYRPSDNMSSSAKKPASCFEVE

Row | ED50 [mg/kg] | Compound
1 | 5.2 | CCCCc1nc2ccccc2n1Cc1ccc(-c2ccccc2-c2nn[nH]n2)cc1

Molecular target: Type-1 angiotensin II receptor (Rattus norvegicus) (UniProt P25095)
Experiment: The compound was tested for Angiotensin II (AII) antagonist activity in vivo in an […], normotensive rat model upon intravenous administration

Row | ED50 [mg/kg] | Compound
2 | 16.1 | CCCCc1nc2ccccc2n1Cc1ccc(C(=O)O)cc1OC
3 | 5 | CCCCc1nc2ccccc2n1Cc1ccc(C(=O)O)c(Br)c1
4 | > 20 | CCCCCCc1nc2ccccc2n1Cc1ccc(C(=O)O)cc1
5 | 9.1 | CCCCc1nc2cc(F)ccc2n1Cc1ccc(C(=O)O)cc1
6 | 12.6 | CCCCc1nc2ccccc2n1Cc1ccc(C(=O)O)cc1
7 | 11.1 | CCCCc1nc2ccccc2n1Cc1ccc(C(=O)O)cc1Br
